Results from paper PMC12592502, “Unraveling the mechanisms behind the enhanced efficacy of β-lactam-based sideromycins” (Communications Biology, 2025).
Where two headings read alike, the source gives them in different places.

What was measured:
Assay in all cases: Membrane PBP binding assay, competition with Bocillin FL
PBP2 [1] = target: T1, PBP2 (Pseudomonas aeruginosa, UniProt Q9X6V3)
T1 construct: using bacterial membranes as the source of PBPs; endogenous in cells; host or cells: P. aeruginosa ATCC 27853 membrane preparation
T1 sequence (Q9X6V3 1-646): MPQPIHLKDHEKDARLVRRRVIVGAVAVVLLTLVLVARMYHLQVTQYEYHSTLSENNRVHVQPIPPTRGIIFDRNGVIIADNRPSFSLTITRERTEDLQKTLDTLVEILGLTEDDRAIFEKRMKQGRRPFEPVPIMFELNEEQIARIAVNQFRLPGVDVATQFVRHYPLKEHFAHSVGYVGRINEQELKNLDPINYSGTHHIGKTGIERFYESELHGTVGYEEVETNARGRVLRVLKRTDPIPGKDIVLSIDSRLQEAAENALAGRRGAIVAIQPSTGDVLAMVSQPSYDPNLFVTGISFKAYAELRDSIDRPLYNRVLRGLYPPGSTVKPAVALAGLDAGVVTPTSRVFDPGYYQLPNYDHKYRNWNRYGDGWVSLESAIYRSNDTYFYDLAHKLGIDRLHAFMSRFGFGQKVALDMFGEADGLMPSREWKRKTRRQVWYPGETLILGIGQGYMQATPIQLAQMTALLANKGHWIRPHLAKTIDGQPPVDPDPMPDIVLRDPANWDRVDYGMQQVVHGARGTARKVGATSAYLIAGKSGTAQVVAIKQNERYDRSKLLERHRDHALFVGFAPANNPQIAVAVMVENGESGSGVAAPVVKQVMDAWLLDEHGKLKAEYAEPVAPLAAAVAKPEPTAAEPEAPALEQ
Experimental: (§1) Membrane extracts containing PBPs were obtained as described above. Briefly, all species were grown in 1 L of TSB until the OD600 reached 0.9. The washed pellet was incubated with lysozyme (400 μg/mL), DNase (10 μg/mL) RNase(10 μg/mL) and anti-protease cocktail (200 mg/20 mL). Lysis was done with a French press (20,000 psi) and membrane protein were pelleted by ultracentrifugation steps (100,000 × g). The pellet was suspended in a minimal volume (300–500 μL) of KP 0.05 M buffer at pH 7. The protein concentration in the membrane preparations was determined with the Micro BCA TM Protein Assay Kit (Thermo Fisher Scientific, Rockford, IL) using bovine serum albumin as a standard.
(§2) The PBP binding assay was done as described previously[36],[56],[57]. For each antibiotic concentration tested, a quantity of 25 to 40 μg of membrane preparation was used as the source of PBPs, depending on the species. For the purified PaPBP3, 150 ng was used in the assay. First, increasing concentrations of the test antibiotic was added to the membrane or purified PaPBP3 preparations and incubated for 10 min at 30 °C. The reporter molecule Bocillin FL was then added at 12.5 μM for the membrane PBPs preparations and at 500 nM for the pure PaPBP3 samples for an additional 20 min at 30 °C. All reactions were stopped with the addition of the Laemmli-loading buffer (Bio-Rad) containing fresh β-mercaptoethanol (Sigma). All reactions were then heated at 100°C for 3 min before migration on SDS-polyacrylamide discontinuous gel system (7.5% stacking and 10% separating). Control samples without Bocillin FL were also included to highlight autofluorescent proteins that are not PBPs.
(§3) To be able to visualize labeled PBPs after electrophoresis, gels were rinsed in water and fixed in a solution of 50% methanol and 7% acetic acid for 30 min. The fluorescent images of gels were obtained with the Typhoon FLA 9500 instrument (GE-Healthcare Bio-Sciences Inc., Baie-d’Urfé, QC, CA) using a 473 nm excitation wavelength. To obtain quantifiable data, the software Quantity One 1D analysis was used (version 4.6.6; Bio-Rad Laboratories, Richmond, CA). The volume (intensity × constant area) of each PBP was measured. […] All IC50 data were obtained from at least two independent PBP binding assays using two different sets of compound concentrations using a linear regression. The PBP profiles were confirmed, and the PBP numbering were determined using published data and individual molecular weights. […] For example, amdinocillin (Sigma) was used for PBP2 identification. […] The IC50 for PBP 2 of P. aeruginosa was measured by including the SDS-PAGE comigrating autofluorescent protein in the background, as done previously.

PBP3 [2] = target: T2, PBP3 (Pseudomonas aeruginosa, UniProt G3XD46); conditions: for IC50 value ratio βL/SID-βL, PBP3: P. aeruginosa ATCC 27853, membrane
T2 construct: using bacterial membranes as the source of PBPs; endogenous in cells; host or cells: P. aeruginosa ATCC 27853 membrane preparation
Experimental: as §1, §2, §3

PBP1a/1b [3] = conditions: K. pneumoniae ATCC 13883 membranes
Experimental: as §1, §2, §3

PBP1a = target: T3, PBP1a (Pseudomonas aeruginosa, UniProt Q07806)
T3 construct: using bacterial membranes as the source of PBPs; endogenous in cells; host or cells: P. aeruginosa ATCC 27853 membrane preparation
Experimental: as §1, §2, §3

PBP4 = target: T4, PBP4 (Escherichia coli, UniProt P24228); design: species or system E. coli MC4100
T4 construct: using bacterial membranes as the source of PBPs; endogenous in cells; host or cells: E. coli MC4100 membrane preparation
Experimental: as §1, §2, §3

PBP2 [4] = target: T5, PBP2 (Escherichia coli, UniProt P0AD65); design: species or system E. coli MC4100
T5 construct: using bacterial membranes as the source of PBPs; endogenous in cells; host or cells: E. coli MC4100 membrane preparation
Experimental: as §1, §2, §3

PBP3 [5] = target: T6, PBP3 (Escherichia coli, UniProt P0AD68); design: species or system E. coli MC4100; conditions: for IC50 value ratio βL/SID-βL, PBP3: E. coli MC4100
T6 construct: using bacterial membranes as the source of PBPs; endogenous in cells; host or cells: E. coli MC4100 membrane preparation
Experimental: as §1, §2, §3

PBP1a/1b [6] = target: PBP1a/1b; design: species or system E. coli MC4100; conditions: for IC50: E. coli MC4100 membranes, 12.5 μM Bocillin FL
Experimental: as §1, §2, §3

[7] = P. aeruginosa ATCC 27853 membranes, read-out: IC50 PBP2
[8] = P. aeruginosa ATCC 27853 membranes, read-out: IC50 PBP3
[9] = P. aeruginosa ATCC 27853 membranes, read-out: IC50 PBP1a
[10] = E. coli MC4100 membranes, read-out: IC50 PBP4
[11] = E. coli MC4100 membranes, read-out: IC50 PBP2
[12] = E. coli MC4100 membranes, read-out: IC50 PBP3

N[C@@H](C(=O)N[C@@H]1C(=O)N2C(C(=O)O)=C(Cl)CS[C@H]12)c1ccccc1 [CEF, cefaclor, reference compound]
IC50 (PBP2 [1]; [7]): > 50 µM
IC50 (PBP3 [2]; [8]): 39 ± 1.5 µM
IC50 (PBP1a/1b [3]): 7.9 ± 1.5 µM
IC50 (PBP1a; [9]): 33.9 ± 6.9 µM
IC50 (PBP4): 40.2 ± 8.6 µM
IC50 (PBP2 [4]): > 50 µM
IC50 (PBP3 [5]): 15.4 ± 0.9 µM
IC50 (PBP1a/1b [6]): 34 ± 2 µM

O=C(CN(CCCCNC(=O)c1cccc(O)c1O)C(=O)c1cccc(O)c1O)NC(C(=O)NC1C(=O)N2C(C(=O)O)=C(Cl)CCC12)c1ccccc1 (centres unmarked) [BLOR, bis-catechol (azotochelin)-loracarbef]
IC50 (PBP2 [1]; [7]): 4.8 ± 3 µM
IC50 value ratio βL/SID-βL, PBP3 (PBP3 [2]): > 16
IC50 (PBP3 [2]; [8]): 3.2 ± 0.1 µM
IC50 (PBP1a/1b [3]): 0.43 ± 0.17 µM
IC50 (PBP1a; [9]): 0.58 ± 0.04 µM
IC50 (PBP4; [10]): 8.3 ± 0.5 µM
IC50 (PBP2 [4]; [11]): > 50 µM
IC50 value ratio βL/SID-βL, PBP3 (PBP3 [5]): 199
IC50 (PBP3 [5]; [12]): 0.075 ± 0.011 µM
IC50 (PBP1a/1b [6]): 0.55 ± 0.02 µM

CC1(C)S[C@@H]2[C@H](NC(=O)[C@H](N)c3ccccc3)C(=O)N2[C@H]1C(=O)O [AMP, ampicillin, reference compound]
IC50 (PBP2 [1]): > 50 µM
IC50 (PBP3 [2]): 0.24 ± 0.08 µM
IC50 (PBP1a/1b [3]): 8 ± 1 µM
IC50 (PBP1a): 1.9 ± 1.5 µM
IC50 (PBP4; [10]): 8.3 ± 0.8 µM
IC50 (PBP2 [4]; [11]): 11.4 ± 2.4 µM
IC50 (PBP3 [5]; [12]): 1.92 ± 0.94 µM
IC50 (PBP1a/1b [6]): 7.22 ± 0.07 µM

O=C(CCC(=O)N(CCCCNC(=O)c1cccc(O)c1O)CCCNC(=O)c1cccc(O)c1O)NCCCCCN(O)C(=O)CCCC(=O)NC(C(=O)NC1C(=O)N2C(C(=O)O)=C(Cl)CSC12)c1ccccc1 (centres unmarked) [MCEF, mixed ligand bis-catechol-mono-hydroxamate-cefaclor]
IC50 (PBP2 [1]; [7]): 6.74 ± 0.03 µM
IC50 (PBP3 [2]; [8]): 2.01 ± 0.48 µM
IC50 (PBP1a/1b [3]): 0.35 ± 0.02 µM
IC50 (PBP1a; [9]): 0.39 ± 0.35 µM
IC50 (PBP4; read-out: IC50 PBP4, E. coli MC4100 membranes): 8.6 ± 1.3 µM
IC50 (PBP2 [4]; read-out: IC50 PBP2, E. coli MC4100 membranes): 29.3 ± 2.3 µM
IC50 value ratio βL/SID-βL, PBP3 (PBP3 [5]): 49
IC50 (PBP3 [5]; read-out: IC50 PBP3, E. coli MC4100 membranes): 0.32 ± 0.01 µM
IC50 value ratio βL/SID-βL, PBP1a/1b (PBP1a/1b [6]; E. coli MC4100): 227
IC50 (PBP1a/1b [6]): 0.15 ± 0.01 µM

N[C@@H](C(=O)N[C@@H]1C(=O)N2C(C(=O)O)=C(Cl)CC[C@H]12)c1ccccc1 [LOR, loracarbef, reference compound]
IC50 (PBP2 [1]; [7]): > 50 µM
IC50 (PBP3 [2]; [8]): > 50 µM
IC50 (PBP1a/1b [3]): 4.5 ± 2.1 µM
IC50 (PBP1a; [9]): > 50 µM
IC50 (PBP4; [10]): 31.6 ± 9 µM
IC50 (PBP2 [4]; [11]): > 50 µM
IC50 (PBP3 [5]; [12]): 14.9 ± 4.3 µM
IC50 (PBP1a/1b [6]): 42.5 ± 11.8 µM

CC1(C)SC2C(NC(=O)C(NC(=O)CN(CCCCNC(=O)c3cccc(O)c3O)C(=O)c3cccc(O)c3O)c3ccccc3)C(=O)N2C1C(=O)O (centres unmarked) [BAMP, bis-catechol (azotochelin)-ampicillin]
IC50 (PBP2 [1]; [7]): > 50 µM
IC50 value ratio βL/SID-βL, PBP3 (PBP3 [2]): 1.5
IC50 (PBP3 [2]; [8]): 0.16 ± 0.01 µM
IC50 (PBP1a/1b [3]): 4.24 ± 0.07 µM
IC50 (PBP1a; [9]): 1.4 ± 0.7 µM
IC50 (PBP4; [10]): > 50 µM
IC50 (PBP2 [4]; [11]): 2.26 ± 0.57 µM
IC50 (PBP3 [5]; [12]): 0.091 ± 0.007 µM
IC50 (PBP1a/1b [6]): 2.4 ± 0.54 µM
